Laboratory results as given in patent publication US20020019527A1 (priority 2000, published 2002).
Counter-ions that a name gives are not always drawn.

Assays:
[1] = target: T1, Farnesyltransferase (FTase) (Bos taurus, UniProt P29702+P49355); assay: Farnesyltransferase inhibition (scintillation proximity assay, [3H]-FPP / biotin-K-ras peptide); type: biochemical, bovine; conditions: compound at 10^−6 M; bovine FTase, 37° C., 30 minutes
T1 construct: precipitation from a beef brain homogenate; from tissue; host or cells: bovine brain
Method in brief: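 Read-out: [3H]-FPP prenylation of a biotinylated K-ras peptide by SPA, measured 1 h after quenching. Enzyme: FTase purified from bovine brain (ammonium sulfate cut, DEAE Sepharose), free of GGTase I and II. Test compounds in ethanol, diluted 10-fold into the reaction.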

[2] = Cardiovascular liability test
Experimental: Representative compounds of the instant invention were also tested for cardiovascular liability (see Journal of Cardiovascular Pharmacology, 607-618: 37 (2001)).

T1 sequence (P49355 whole entry, one chain of several): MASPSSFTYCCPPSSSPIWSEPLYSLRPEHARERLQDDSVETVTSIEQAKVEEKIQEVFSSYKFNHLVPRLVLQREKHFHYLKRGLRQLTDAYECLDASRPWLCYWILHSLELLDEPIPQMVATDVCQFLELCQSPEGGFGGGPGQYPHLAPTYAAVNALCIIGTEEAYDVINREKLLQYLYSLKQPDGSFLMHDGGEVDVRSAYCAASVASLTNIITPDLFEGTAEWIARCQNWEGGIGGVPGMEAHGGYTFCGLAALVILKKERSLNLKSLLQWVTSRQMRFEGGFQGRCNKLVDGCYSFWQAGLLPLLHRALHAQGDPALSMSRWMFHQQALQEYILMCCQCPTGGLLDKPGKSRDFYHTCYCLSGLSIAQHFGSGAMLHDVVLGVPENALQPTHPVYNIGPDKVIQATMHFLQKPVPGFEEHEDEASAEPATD

inhibition at 1 µM [1] [%]	Compound	other results
99	Cn1cncc1C(OCc1ccc(F)c(C(F)(F)F)c1)c1ccc(C#N)c(-c2ccccc2C(F)(F)F)c1 (stereo not shown) [Example 250, 5-(((4-fluoro-3-(trifluoromethyl)benzyl)oxy)(1-methyl-1H-imidazol-5-yl)methyl)-2′-(trifluoromethyl)(1,1′-biphenyl)-2-carbonitrile hydrochloride]	
99	Cn1cncc1C(OCc1ccc(C#N)cn1)c1ccc(C#N)c(-c2ccccc2C(F)(F)F)c1 (stereo not shown) [Example 251, 6-(((6-cyano-2′-(trifluoromethyl)(1,1′-biphenyl)-3-yl)(1-methyl-1H-imidazol-5-yl)methoxy)methyl)nicotinonitrile dihydrochloride]	
94	Cn1cncc1C(OCc1ccc(C#N)c(-c2cccc3ccccc23)c1)c1ccccc1 (stereo not shown) [Example 256, 4-(((1-methyl-1H-imidazol-5-yl)(phenyl)methoxy)methyl)-2-(1-naphthyl)benzonitrile hydrochloride]	
90	Cn1cncc1C(CCc1ccccc1)NCc1ccc(C#N)c(-c2cccc3ccccc23)c1 (stereo not shown) [Example 260, 4(((1-(1-methyl-1H-imidazol-5-yl)-3-phenylpropyl)amino)methyl)-2-(1-naphthyl)benzonitrile dihydrochloride]	
100	Cn1cncc1C(OCc1cccc(C#N)c1)c1ccc(C#N)c(-c2cccc3ccccc23)c1 (stereo not shown) [Example 262, 4-(((3-cyanobenzyl)oxy)(1-methyl-1H-imidazol-5-yl)methyl)-2-(1-naphthyl)benzonitrile]	
100	Cn1cncc1C(OCc1ccc(Br)cc1)c1ccc(C#N)c(-c2cccc3ccccc23)c1 (stereo not shown) [Example 263, 4-(((4-bromobenzyl)oxy)(1-methyl-1H-imidazol-5-yl)methyl)-2-(1-naphthyl)benzonitrile]	
100	Cn1cncc1CN(Cc1cccc(Cl)c1)c1ccc(C#N)c(-c2cccc3ccccc23)c1 [Example 264, 4-((3-chlorobenzyl)((1-methyl-1H-imidazol-5-yl)methyl)amino)-2-(1-naphthyl)benzonitrile]	
100	N#Cc1ccc(N(Cc2ccccc2)Cc2cnc[nH]2)cc1-c1cccc2ccccc12 [Example 265, 4-(benzyl(1H-imidazol-5-ylmethyl)amino)-2-(1-naphthyl)benzonitrile]	
100	Cn1cncc1CN(Cc1cccc(C#N)c1)c1ccc(C#N)c(-c2cccc3ccccc23)c1 [Example 266, 4-((3-cyanobenzyl)((1-methyl-1H-imidazol-5-yl)methyl)amino)-2-(1-naphthyl)benzonitrile]	
100	Cn1cncc1CN(c1ccc(C#N)c(-c2cccc3ccccc23)c1)S(=O)(=O)c1ccccc1 [Example 267, N-(4-cyano-3-(1-naphthyl)phenyl)-N-((1-methyl-1H-imidazol-5-yl)methyl)benzenesulfonamide]	
	COC(=O)c1ccc(CN(Cc2cncn2C)c2ccc(C#N)c(-c3cccc4ccccc34)c2)cc1 [Example 268, methyl 4-((4-cyano((1-methyl-1H-imidazol-5-yl)methyl)-3-(1-naphthyl)anilino)methyl)benzoate]	% Inhibition at 10^−6M [1]: 100%
	Cn1cncc1CN(Cc1ccc(C(=O)O)cc1)c1ccc(C#N)c(-c2cccc3ccccc23)c1 [Example 269, 4-((4-cyano((1-methyl-1H-imidazol-5-yl)methyl)-3-(1-naphthyl)anilino)methyl)benzoic acid]	% Inhibition at 10^−6M [1]: 100%
100	Cc1ccccc1-c1cc(N(Cc2ccccc2)Cc2cnc[nH]2)ccc1C#N [Example 270, 5-(benzyl(1H-imidazol-5-ylmethyl)amino)-2′-methyl(1,1′-biphenyl)-2-carbonitrile]	
	COC(=O)c1cccc(CN(Cc2cncn2C)c2ccc(C#N)c(-c3cccc4ccccc34)c2)c1 [Example 271, methyl 3-((4-cyano((1-methyl-1H-imidazol-5-yl)methyl)-3-(1-naphthyl)anilino)methyl)benzoate]	% Inhibition at 10^−6M [1]: 100%
100	Cn1cncc1C(OCc1cccc(Cl)c1)c1ccc(C#N)c(-c2cccc3ccccc23)c1 (stereo not shown) [Example 273, 4-((1-methyl-1H-imidazol-5-yl)((3-chlorobenzyl)oxy)methyl)-2-(1-naphthyl)benzonitrile hydrochloride]	
	Cl.Cl.Cn1cncc1C(OCc1ccc(C#N)nc1)c1ccc(C#N)c(-c2cccc3ccccc23)c1 (stereo not shown) [Example 274, 5-(((4-cyano-3-(1-naphthyl)phenyl)(1-methyl-1H-imidazol-5-yl)methoxy)methyl)-2-pyridinecarbonitrile dihydrochlolide]	% Inhibition at 10^−6M [1]: 100%
100	Cn1cncc1C(OCc1ccc(C#N)cc1)c1cnc(C#N)c(-c2cccc3ccccc23)c1 (stereo not shown) [Example 275, 5-(((4-cyanobenzyl)oxy)(1-methyl-1H-imidazol-5-yl)methyl)-3-(1-naphthyl)-2-pyridinecarbonitrile dihydrochloride]	
100	Cn1cncc1C(OCc1ccc(N=[N+]=[N-])cc1)c1ccc(C#N)c(-c2cccc3ccccc23)c1 (stereo not shown) [Example 276, 4-((1-methyl-1H-imidazol-5-yl)((4-azidobenzyl)oxy)methyl)-2-(1-naphthyl)benzonitrile hydrochloride]	
95	COC(=O)c1ccc(COC(c2ccc(C#N)c(-c3ccccc3C(F)(F)F)c2)c2cncn2C)nc1 (stereo not shown) [Example 277, methyl 6-(((6-cyano-2′-(trifluoromethyl)(1,1′-biphenyl)-3-yl)(1-methyl-1H-imidazol-5-yl)methoxy)methyl)nicotinate dihydrochloride]	
99	Cc1cccc(-c2cc(C(OCc3ccc(C#N)cc3)c3cncn3C)ccc2C#N)c1C (stereo not shown) [Example 278, 5-(((4-cyanobenzyl)oxy)(1-methyl-1H-imidazol-5-yl)methyl)-2′,3′-dimethyl(1,1′-biphenyl)-2-carbonitrile hydrochloride]	
99	Cn1cncc1C(OCc1ccc(C#N)cc1)c1ccc(C#N)c(-c2cccc(Cl)c2Cl)c1 (stereo not shown) [Example 279, 2′,3′-dichloro-5-(((4-cyanobenzyl)oxy)(1-methyl-1H-imidazol-5-yl)methyl)(1,1′-biphenyl)-2-carbonitrile hydrochloride]	
98	Cn1cncc1C(OCc1ccc(C#N)cn1)c1ccc(C#N)c(-c2cccc(Cl)c2Cl)c1 (stereo not shown) [Example 280, 6-(((2′,3′-dichloro-6-cyano(1,1′-biphenyl)-3-yl)(1-methyl-1H-imidazol-5-yl)methoxy)methyl)nicotinonitrile dihydrochloride]	
98	Cc1cccc(-c2cc(C(OCc3ccc(C#N)cn3)c3cncn3C)ccc2C#N)c1C (stereo not shown) [Example 281, 6-(((6-cyano-2′,3′-dimethyl(1,1′-biphenyl)-3-yl)(1-methyl-1H-imidazol-5-yl)methoxy)methyl)nicotinonitrile dihydrochloride]	
75	N#Cc1ccc(COC(c2ccsc2)c2ccc(C#N)c(-c3cccc4ccccc34)c2)nc1 (stereo not shown) [Example 289, 6-(((4-cyano-3-(1-naphthyl)phenyl)(3-thienyl)methoxy)methyl)nicotinonitrile]	
	N#Cc1ccc(COC(c2ccc(C#N)c(-c3cccc4ccccc34)c2)c2cncs2)nc1 (stereo not shown) [Example 291, 6-(((4-cyano-3-(1-naphthyl)phenyl)(1,3-thiazol-5-yl)methoxy)methyl)nicotinonitrile]	electrophysiological profile (cardiovascular liability) [2]: improved electrophysiological profile
